A value given as a limit tells only on which side of the number the result lay.

On to `O=C(Cc1ccc(OCc2cccc(C(=O)O)c2)cc1)NC1(C(=O)O)Cc2ccc(-c3ccc(Cl)cc3)cc2C1` (centres undefined), for which the melting point is 220 to 222 °C.

On to `CCn1nnnc1C(C=CC=O)=C(c1ccc(F)cc1)c1ccc(F)cc1`, for which the melting point lay within 163 to 165 °C. Then `NCC1Cc2cc(Cl)c3[nH]c(=O)ccc3c2O1` (centres undefined), with greater than 300 °C; and `COC(=O)c1cc(O)c2cc(N3CCOCC3)ccc2c1`, with 231 to 234 °C; and `Oc1c(C(O)C(F)(F)F)cnc2c(-c3cc(-c4ccccc4)cs3)cnn12` (centres undefined), with 265 to 290 °C. Then `Cc1ncn(C(=O)Nc2ccccc2)c1Cl`, with 112 to 114 °C; and `O=C(Nc1nc2ccccc2[nH]1)c1ccc(Cl)c(Cl)c1`, with 251 to 252 °C; and `CN(C)N1C(=O)C(=Cc2nc(C(C)(C)C)c(O)c(C(C)(C)C)n2)SC1=S`, with 100 to 105 °C. Then `CCN(CC)C(=O)CCc1nc(-c2ccccc2)nc2ccccc12`, with 103 °C; and `COC(=O)c1cc(-c2ccccc2)c(=O)n2c1-c1cc(Cl)ccc1CC2`, with 139 to 141 °C; and `CC1(C)C(=O)Nc2cc3[nH]c(-c4ccnnc4)nc3cc21`, with greater than 360 °C. `O=C(O)CCCc1ccc(NS(=O)(=O)c2ccc(Cl)c(Cl)c2)cn1` had a melting point of 193 to 194 °C. Under `COc1ccc2c(c1)Cc1ccccc1C(=O)C2` stands 105 to 106 °C. `N#Cc1ccc(-c2ccc(S(=O)(=O)NCc3ccncc3)cc2)cc1` returned a melting point of 198 to 202 °C. For the compound `CC(C)(C)OC(=O)N[C@@H](CCCCN=C=O)C(=O)N1CC(F)(F)C(F)(F)C1`, the melting point was in the range of 68 to 70 °C. `NC(=O)N1CCC(c2nn(-c3ccc(F)cc3)c3ccccc23)CC1` registered a melting point of 145 to 147 °C. Under `Cc1nc(C)c(-c2ccnc(Nc3cccc([N+](=O)[O-])c3)n2)s1` stands 176 to 178 °C; under `CC(=O)c1c(C)c2ccccc2n1N`, 94 to 98 °C. Under `O=C(NCCBr)C1=C(C(=O)Nc2ccc(Cl)cc2F)CCCC1` stands 165 to 166 °C; under `CCCCCC1CCC(C2CCC(CC(=O)CC)CC2)CC1` (centres undefined), 107 °C; under `[N-]=[N+]=C(C(=O)CC1CC(=O)N1)C(=O)OCc1ccc([N+](=O)[O-])cc1` (centres undefined), 114 to 116 °C. Then `Nc1cc(OCc2cccc(Cl)c2)c(C(=O)O)cc1Cl`, with 182 to 184 °C; and `CCCCn1c(CO)nc2c(N)nc3ccccc3c21`, with 223 to 225 °C. `NCCNc1cc(-n2cccn2)nc(-c2cccs2)n1`: the melting point worked out at 147 °C. The compound `C(=Cc1ccc2cc(C=Cc3ccccc3)ccc2c1)c1ccccc1` yielded a melting point of 291 °C.

Regarding `Fc1ccc(C(CCCN2CCN(c3n[nH]c4cc(Cl)ccc34)CC2)c2ccc(F)cc2)cc1`, the melting point is 202 to 204 °C. For `c1ccc(C2(c3ccccc3)CCNCCO2)cc1`, the melting point fell in the range of 72 to 75 °C.

In the case of `CCCCc1nc2c(N)nc3c(c2n1CC(C)C)CCNC3`, the melting point was in the range of 164 to 166 °C. Under `O=C(O)CCCc1cccc(CNC(=O)C2Cc3ccccc3N2S(=O)(=O)c2ccc(-c3cccc(C(F)(F)F)c3)cc2)c1` (centres undefined) stands 76 °C; under `COc1cccc(C=CC(=O)N2CCNCC2)c1`, 84 to 86 °C.

In turn, `CCOC(=O)C=Cc1ccc(O)c(Br)c1` yielded a melting point of 112 to 113 °C.

With `Cc1cccc2c1CCN=C2c1ccc(Cl)cc1`, the melting point lay within 66 to 67 °C. As for `COC(=O)c1cn2c(C)c(C)sc2n1`, the melting point lay in the range of 180 to 181 °C. `CCCc1nc2c(N)nc3cccnc3c2n1CCCCCC(=O)N1CCOCC1` returned a melting point of 148 to 150 °C. The compound `O=C(O)c1ccccc1OCCN1CCC(c2cn(CCCC3OCCO3)c3ccccc23)CC1` came in with a melting point of 147 to 149 °C. Then `Cc1ccc(-c2nc3ccc(N(C)C)cn3c2CNC(=O)CC(C)C)cc1`, with 173 to 175 °C; and `NS(=O)(=O)c1ccc(-c2cnn(CC=C(F)F)c(=O)c2-c2ccc(F)cc2)cc1`, with 191 to 194 °C. Under `O=C1Cc2ccccc2N1C1=NCCS1` stands 97 to 99 °C; under `O=C(/C=C/c1ccc(N2CCOCC2)cc1)CC(=O)/C=C/c1ccc2cc[nH]c2c1`, 93 to 97 °C; under `C[C@H](NC(=O)OCc1ccccc1)C(=O)N[C@@H](Cc1ccccc1)C(=O)OCc1ccccc1`, 118 to 119 °C. Under `CC(C)(C)c1ccc(NC(=O)N2CCCC3(CC2)CC(c2ccccc2)=NO3)cc1` (centres undefined) stands 137 to 142 °C; under `N#CN=C(N)NCc1ccc2c(c1)Nc1nccnc1S2`, 246 to 248 °C. `COC(=O)c1cc(F)c(C(F)(F)F)cc1[N+](=O)[O-]` displayed a melting point of 66 to 68 °C.

On to `O=C(Cc1ccccc1C(=O)O)Nc1cccc(/C=C/c2csc(C3CCC3)n2)c1`, for which the melting point lay within 198 to 199 °C. For `Cc1noc2nc(-c3ccccc3)cc(O)c12`, the melting point lay within 281 to 282 °C. Then `CC(C(=O)O)c1ccc2c(c1)C(=O)CC(C(C)C)O2` (centres undefined), with 94 to 95 °C; and `CC(=O)Nc1ccc2c(c1)NC(=O)CC2(C)C`, with 273 to 278 °C; and `CCC(CC)(CC(=O)Nc1cccc(SCc2ccc3cc(F)ccc3n2)c1)C(=O)O`, with 117 to 120 °C.

For the compound `CCOCCCOc1ccc2c(c1)C(N(CC)S(C)(=O)=O)CC(C)(C)O2` (centres undefined), the melting point lay within 72 to 74 °C.

Compound `CC(C)NC(=O)c1c(NC(=O)c2cc(C(F)(F)F)nn2-c2ncccc2Cl)ccc2ncccc12` yielded a melting point of 182 to 183 °C. Then `CC(=O)OCC1OC(n2cc(C3=C(c4cn(C(=O)OC(C)(C)C)c5ccccc45)C(=O)N(C)C3=O)c3cccnc32)C(OC(C)=O)C(OC(C)=O)C1OC(C)=O` (centres undefined), with 89 to 91 °C; and `COc1ccc(C(=O)Nc2ccc3ccc(Oc4ccccc4Br)nc3n2)cc1`, with 183 °C; and `CCOC(=O)COc1cc(C2C(C(=O)OC)=C(C)NC(C)=C2C(=O)OC)ccc1OC`, with 170 °C. `O=C(O)c1ccc(C(F)F)o1` returned a melting point of 112 to 113 °C. The compound `CCC1CCC(c2ccc(-c3cc(F)c(C(F)(F)Oc4cc(F)c(C(F)(F)F)c(F)c4)c(F)c3)c(F)c2)CC1` (centres undefined) gave a melting point of 77 °C. The compound `Clc1c(CN[C@H]2CC[C@@H](c3ccccc3)CC2)ccn2c(CC3CC3)nnc12` gave a melting point of 171 °C. Then `Oc1cccc(-c2ccc3cc(O)ccc3c2)c1`, with 192 to 194 °C; and `O=C1CCC(N2Cc3c(OCc4ccc(CN5CCC(F)(F)C5)cc4)cccc3C2=O)C(=O)N1` (centres undefined), with 126 to 128 °C; and `COc1nc(C)c(N2CCCn3c2nc2c(Cl)ccc(C(O)(C4CC4)C4CC4)c23)c(C)n1`, with 220 to 221 °C. As to `CC1(C)CCSc2cc(C(=O)O)ccc21`, the melting point was 202 to 204 °C. Under `NNc1ccnc2c(NC(=O)c3c(Cl)cccc3Cl)cccc12` stands 204 to 206 °C. The compound `O=c1oc(=O)n(Cc2ccc(F)cc2)c2ccc(F)cc12` came in with a melting point of 107 °C. Under `CC(=O)OCC1(c2ccc(F)cc2)CCC(=O)CC1` stands 80 to 84 °C; under `Cc1noc(C)c1-c1ccc(C[C@H](NC(=O)c2c(Cl)cccc2Cl)C(=O)O)cc1`, 152 °C.

For orientation: melting point means the temperature of the solid-liquid transition.

Values taken from a melting point compilation (Tetko et al.; mined from patent text by program, amines drawn as free bases though some values may be those of a salt).
